Source: ChEMBL document CHEMBL4325854, “Synthetic small molecules as anti-biofilm agents in the struggle against antibiotic resistance” (Eur J Med Chem, 2019)

Assays:
[1] = target: T1, Sortase A (Staphylococcus aureus, UniProt Q9S446); assay: Inhibition of Staphylococcus aureus SrtA
T1 sequence (Q9S446 whole entry): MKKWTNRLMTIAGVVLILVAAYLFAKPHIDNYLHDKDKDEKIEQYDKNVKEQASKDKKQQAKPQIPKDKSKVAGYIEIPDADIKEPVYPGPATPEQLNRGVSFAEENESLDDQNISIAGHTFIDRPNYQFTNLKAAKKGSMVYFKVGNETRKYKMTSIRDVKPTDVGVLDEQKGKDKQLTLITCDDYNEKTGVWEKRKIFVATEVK

[2] = system: Staphylococcus aureus; assay: Antibiofilm activity against Staphylococcus aureus ATCC 6538; type: functional, organism-based
[3] = system: Vibrio cholerae; assay: Antibiofilm activity against Vibrio cholerae; type: functional, organism-based
[4] = system: Vibrio cholerae; assay: Antibiofilm activity against Vibrio cholerae assessed as inhibition of biofilm dispersion; type: functional, organism-based
[5] = system: Staphylococcus aureus; assay: Antibiofilm activity against methicillin-resistant Staphylococcus aureus BAA-1707; type: functional
[6] = system: Staphylococcus aureus; assay: Antibiofilm activity against methicillin-resistant Staphylococcus aureus isolate 2; type: functional
[7] = system: Enterococcus; assay: Antibiofilm activity against vancomycin-resistant Enterococcus; type: functional
[8] = system: Staphylococcus epidermidis; assay: Antibiofilm activity against Staphylococcus epidermidis; type: functional
[9] = system: Staphylococcus aureus; assay: Antibiofilm activity against methicillin-resistant Staphylococcus aureus ATCC BAA-44 preformed biofilms assessed as reduction in biofilm dispersion; type: functional, organism-based
[10] = system: Staphylococcus aureus; assay: Antibiofilm activity against methicillin-resistant Staphylococcus aureus ATCC BAA-44; type: functional, organism-based
[11] = system: Enterococcus faecium; assay: Antibiofilm activity against Enterococcus faecium; type: functional
[12] = system: Staphylococcus aureus; assay: Antibiofilm activity against methicillin-resistant Staphylococcus aureus; type: functional, organism-based
[13] = system: Enterococcus faecalis; assay: Antibiofilm activity against Enterococcus faecalis; type: functional
[14] = system: Staphylococcus aureus; assay: Antibiofilm activity against Staphylococcus aureus ATCC 29213 at 6.2 ug/ml relative to control; type: functional
[15] = system: Staphylococcus aureus; assay: Antibiofilm activity against Staphylococcus aureus ATCC 29213 at 25 ug/ml relative to control; type: functional
[16] = system: Staphylococcus epidermidis; assay: Antibiofilm activity against Staphylococcus epidermidis at 25 ug/ml relative to control; type: functional
[17] = target: Fucose-binding lectin PA-IIL (Pseudomonas aeruginosa (strain ATCC 15692 / DSM 22644 / CIP 104116 / JCM14847 / LMG 12228 / 1C / PRS 101 / PAO1), UniProt Q9HYN5); assay: Inhibition of N-(Fluorescein-5-yl)-N'-(alpha-L-fucopyranosyl ethylen)thiocarbamide binding to Pseudomonas aeruginosa PA14 LecB after 22 to 24 hrs by fluorescence polarization assay
Chain of Fucose-binding lectin PA-IIL (Q9HYN5 1-115): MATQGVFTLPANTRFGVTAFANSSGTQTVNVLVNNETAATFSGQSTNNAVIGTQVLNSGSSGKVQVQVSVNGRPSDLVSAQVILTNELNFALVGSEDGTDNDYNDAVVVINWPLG

Question: With `CCOC(=O)/C(=N/Nc1c(F)cccc1F)C(=O)c1cc(C)nn1CC` as the compound, how does the IC50 [1] read?
Answer: Its IC50 is 75 µM.

Question: What about the IC50 [2] of the same compound?
Answer: The IC50 was 0.9 µM.

Question: Which IC50 [3] does the source give for `O[C@H](c1cc(-c2cccc(S(F)(F)(F)(F)F)c2)nc2ccccc12)[C@@H]1CCCN1` here?
Answer: The IC50 was 4.4 µM.

Question: What about the DC50 [4] of the same compound?
Answer: Its DC50 is 7.4 µM.

Question: What does the source list for `Oc1c(Br)cc(Br)c2ccc(CNc3ccc(F)cc3)nc12`?
Answer: MBEC [5]: 7.8 µM; MBEC [6]: 93.8 µM; MBEC [7]: 1 µM; MBEC [8]: 5.9 µM

Question: For `CCCCC(Cl)(Cl)C1NC(=O)/C(=C/c2ccc(C(F)(F)F)cc2)O1` (stereo not drawn), which IC50 [9] is on record?
Answer: Its IC50 is 4.7 µM.

Question: What about the IC50 [10] of the same compound?
Answer: The IC50 was 0.78 µM.

Question: What does the source list for `CCc1cccc2nc3c(O)c(Br)cc(Br)c3nc12`?
Answer: MBEC [11]: 0.59 µM; MBEC [8]: 2.35 µM

Question: What does the source list for `CCCCCCCCCCCC[N+](C)(C)CCNCC[N+](C)(C)CCCCCCCCCCCC`?
Answer: MBEC [12]: 50 µM; MBEC [13]: 25 µM

Question: Which Activity [14] does the source give for `Cc1nn(C)c([N-]C(=O)c2ccc([N+](=O)[O-])cc2)c1[N+]#N` here?
Answer: The Activity was 86.5%.

Question: And the Activity [15]?
Answer: The Activity was 69 - 96%.

Question: What about the Activity [16] of the same compound?
Answer: Its Activity is 69 - 96%.

Question: Which IC50 [17] does the source give for `Cc1cc(C)c(S(=O)(=O)NC[C@H]2O[C@@H](C)[C@@H](O)[C@@H](O)[C@@H]2O)c(C)c1` here?
Answer: Its IC50 is 0.34 µM.
